Reference: patent US20110028504A1, “Formulation of radioprotective alpha beta unsaturated aryl sulfones” (ONCONOVA THERAPEUTICS, INC., priority 2005, published 2011)
“Also recorded” adds a separate entry of the source.

What was measured:
[1] = Octanol-water partition coefficient; type: physicochemical; conditions: 25° C., n-octanol and HPLC water, triplicate; pH of the aqueous phase 8.1
Method: The octanol-water partition coefficient of the drug is determined at 25° C. Equal volumes (10 ml) saturated solution of ON.1210.Na in n-octanol and HPLC water are equilibrated at 25° C. in a shaking water bath for 48 hours. The pH of the aqueous phase is also determined. At a predetermined time, a known volume of both the organic and aqueous phase is collected via a filtered needle. Subsequently, the concentration of ON.1210.Na is determined by HPLC after adequate dilution.
The octanol-water partition coefficient of the drug is determined at 25° C. using equal volumes (10 ml) of saturated solution of ON.1210.Na in n-octanol and HPLC water. Similarly, the partition coefficient is determined using simulated gastric and intestinal fluid without enzymes. The octanol-water partition coefficient is determined using the following equation: […]

[2] = pH stability testing at 75° C. (HPLC); type: physicochemical
Method: (§1) The drug is dissolved in different pH buffers as outlined in Table 20. One hundred mL of each solution is prepared in a volumetric flask. Each solution is filtered through a 0.22 um filter. Approximately, four mL of the above solution is placed in 5 ml ampoules and sealed by a propane torch. The pH of the solution is determined at time zero and at each time interval. All the ampoules are placed in a 75° C. constant temperature oven. Any color changes or precipitation in the solution during the sample collection is visually observed. Concentration of the drug is determined at time zero and other time intervals by HPLC.
as §1, with “prepared in volumetric flask.” for “prepared in a volumetric flask.”, “filtered through 0.22 um” for “filtered through a 0.22 um”, “by HPLC. The pH and drug content of each sample are determined.” for “by HPLC.”
The data from the pH stability study is analyzed by plotting Log (conc.) versus time.
The rate constant for the degradation is determined using a linear regression at each individual pH.

SMILES: O=C([O-])c1ccc(/C=C/S(=O)(=O)Cc2ccc(Cl)cc2)cc1.[Na+] [ON.1210.Na, (E)-4-Carboxystyryl-4-chlorobenzylsulfone, Sodium Salt]
- octanol:water partition coefficient [1]: 1.28-2.87
- pH-stability profile ([2]; aqueous buffers pH 4 to 9, 75° C., Sodium Salt): better stability at neutral and biological pH but degradation is rapid under acidic condition; also recorded: dramatically improved as the pH is increased towards the neutral pH
- order of the degradation reaction ([2]; aqueous buffers, 75° C., Sodium Salt): pseudo-first-order rate; also recorded: pseudo first order reaction
- stability in an aqueous environment ([2]; biological pH): quite stable in an aqueous environment at biological pH
- Kobs, first order rate constant for the degradation ([2]; pH 4.0, 75° C.): 0.0621 day⁻¹
- Concentration of the ON.1210.Na determined by HPLC during the stability study ([2]; pH 4 buffer, 75° C., 0 hours, pH of the solution 4.03): 2704.7 ng/mL
- Concentration of the ON.1210.Na determined by HPLC during the stability study ([2]; pH 4 buffer, 75° C., 1 day, pH of the solution 4.3): 2659 ng/mL
- Concentration of the ON.1210.Na determined by HPLC during the stability study ([2]; pH 4 buffer, 75° C., 3 days, pH of the solution 4.12): 2633.1 ng/mL
- Concentration of the ON.1210.Na determined by HPLC during the stability study ([2]; pH 4 buffer, 75° C., 5 days, pH of the solution 4.5): 2734.4 ng/mL
- Concentration of the ON.1210.Na determined by HPLC during the stability study ([2]; pH 4 buffer, 75° C., 42 days, pH of the solution 3.84): 117.1 ng/mL
- Concentration of the ON.1210.Na determined by HPLC during the stability study ([2]; pH 4 buffer, 75° C., 54 days, pH of the solution 3.74): 161.4 ng/mL
- Kobs, first order rate constant for the degradation ([2]; pH 5.0, 75° C.): 0.0295 day⁻¹
- Concentration of the ON.1210.Na determined by HPLC during the stability study ([2]; pH 5 buffer, 75° C., 0 hours, pH of the solution 5.03): 4457.7 ng/mL
- Concentration of the ON.1210.Na determined by HPLC during the stability study ([2]; pH 5 buffer, 75° C., 1 day, pH of the solution 5.18): 4394 ng/mL
- Concentration of the ON.1210.Na determined by HPLC during the stability study ([2]; pH 5 buffer, 75° C., 3 days, pH of the solution 5.11): 4429.5 ng/mL
- Concentration of the ON.1210.Na determined by HPLC during the stability study ([2]; pH 5 buffer, 75° C., 5 days, pH of the solution 5.14): 4471.4 ng/mL
- Concentration of the ON.1210.Na determined by HPLC during the stability study ([2]; pH 5 buffer, 75° C., 10 days, pH of the solution 5.2): 1017 ng/mL
- Concentration of the ON.1210.Na determined by HPLC during the stability study ([2]; pH 5 buffer, 75° C., 17 days, pH of the solution 5.21): 838.2 ng/mL
- Concentration of the ON.1210.Na determined by HPLC during the stability study ([2]; pH 5 buffer, 75° C., 28 days, pH of the solution 4.71): 1334 ng/mL
- Concentration of the ON.1210.Na determined by HPLC during the stability study ([2]; pH 5 buffer, 75° C., 35 days, pH of the solution 4.93): 2813.7 ng/mL
- Concentration of the ON.1210.Na determined by HPLC during the stability study ([2]; pH 5 buffer, 75° C., 42 days): 1304.9 ng/mL
- Concentration of the ON.1210.Na determined by HPLC during the stability study ([2]; pH 5 buffer, 75° C., 54 days, pH of the solution 4.76): 953.9 ng/mL
- Kobs, first order rate constant for the degradation ([2]; pH 6.0, 75° C.): 0.0069 day⁻¹
- Concentration of the ON.1210.Na determined by HPLC during the stability study ([2]; pH 6 buffer, 75° C., 0 hours, pH of the solution 6.02): 22390 ng/mL
- Concentration of the ON.1210.Na determined by HPLC during the stability study ([2]; pH 6 buffer, 75° C., 1 day, pH of the solution 6.12): 22300 ng/mL
- Concentration of the ON.1210.Na determined by HPLC during the stability study ([2]; pH 6 buffer, 75° C., 3 days, pH of the solution 6.21): 22360 ng/mL
- Concentration of the ON.1210.Na determined by HPLC during the stability study ([2]; pH 6 buffer, 75° C., 5 days, pH of the solution 6.14): 22494.5 ng/mL
- Concentration of the ON.1210.Na determined by HPLC during the stability study ([2]; pH 6 buffer, 75° C., 10 days, pH of the solution 6.17): 19086.3 ng/mL
- Concentration of the ON.1210.Na determined by HPLC during the stability study ([2]; pH 6 buffer, 75° C., 17 days, pH of the solution 6.21): 18150 ng/mL
- Concentration of the ON.1210.Na determined by HPLC during the stability study ([2]; pH 6 buffer, 75° C., 28 days, pH of the solution 5.81): 17540.1 ng/mL
- Concentration of the ON.1210.Na determined by HPLC during the stability study ([2]; pH 6 buffer, 75° C., 35 days, pH of the solution 5.92): 17397.9 ng/mL
- Concentration of the ON.1210.Na determined by HPLC during the stability study ([2]; pH 6 buffer, 75° C., 42 days, pH of the solution 5.94): 16000 ng/mL
- Concentration of the ON.1210.Na determined by HPLC during the stability study ([2]; pH 6 buffer, 75° C., 54 days, pH of the solution 5.90): 14717.4 ng/mL
- Kobs, first order rate constant for the degradation ([2]; pH 7.4, 75° C.): 0.0037 day⁻¹
- Concentration of the ON.1210.Na determined by HPLC during the stability study ([2]; pH 7.4 buffer, 75° C., 0 hours, pH of the solution 7.41): 485952 ng/mL
- Concentration of the ON.1210.Na determined by HPLC during the stability study ([2]; pH 7.4 buffer, 75° C., 1 day, pH of the solution 7.42): 485820.6 ng/mL
